Experiments:
HbS = molecular target: T1, HbS (Homo sapiens, UniProt P68871+P69905, E7V); experiment: 'R'-'T' assay (conversion of oxy HbS to deoxy HbS under deoxygenating conditions); type: biochemical; details: 50% inhibition of HbS 'R'-'T' conversion; 3 uM HbS, <1% O2
T1 construct: HbS was obtained from the blood of homozygous S/S patients; from tissue; host or cells: red blood cells of homozygous S/S patients
Procedure: Conversion from oxy (R, relaxed state) to deoxy (T, tense state) HbS in the presence of compound was performed to determine the ability of compounds to stabilize the oxy (R) state under deoxygenating conditions. The assay run was similar to the ‘Oxygen dissociation assay’ described in Oksenberg et al, Br J Haematology, 2016, 175, 141-153.
Assay ready compound plates were prepared by first preparing a master serial dilution plate from a 30 mM initial compound stock in 100% DMSO. From this master serial dilution plate, 167 nL of the desired compound concentration was delivered to the assay ready plates using acoustical dispensing. Plates were frozen at −20° C. until needed. Purified HbS-O2 (i.e. oxy HbS) was diluted to 3 uM in 100 mM potassium phosphate buffer, pH=7.4. 50 uL of 3 uM stock solution was added to each well of the assay ready plate and mechanically mixed eight times. Following mixing the plates were covered and incubated at room temperature for one hour with moderate shaking. Following incubation, the plates were placed in a deoxygenated environment (<1% O2) for two hours, and the conversion to deoxy HbS monitored as a function of time. Oxygenated and deoxygenated forms of hemoglobin were detected using the absorbance of the Soret peaks at 415 and 430 nm respectively, and absorbance measurements (optical density, OD) were taken at 0, 90 and 120 minutes. Background absorbance for correction was collected at 700 nm.
Data were analyzed by first subtracting baseline absorbance at 700 nm from 415 nm and 430 nm data at each timepoint, and then taking the ratio of 415/430 nm data (Ratio=[(OD415−OD700)/(OD430−OD700)]. The effect at each timepoint was calculated using the ratios from the previous calculation at time 0 and each time point of interest (Effect^time x=Ratio^time x/Ratio^time 0). Percent effect was calculated by comparing the effects of compound versus HbS only with the effects observed by the positive control compound tucaresol (percent effect=[(effect^time x compound−effect^time x HbS)/(effect^time x tucaresol−effect^time x HbS)]×100). Data were reported as the percent effect for a single point. Calculations to determine the concentration of compound for 50% inhibition (IC50 (uM)) of the HbS ‘R’-‘T’ conversion were based on the percent effect at varying compound concentration.

[1] = molecular target: T2, purified sickle cell hemoglobin (HbS) (Homo sapiens, UniProt P68871+P69905, E7V); experiment: Binding affinity to purified HbS by Surface Plasmon Resonance (SPR); details: crosslinked biotinylated HbS, 1:1 binding model
T2 construct: HbS was obtained from the blood of homozygous S/S patients; from tissue; host or cells: red blood cells of homozygous S/S patients
Procedure: Binding Affinity, Kd (uM)
The binding affinity for compounds to purified sickle cell hemoglobin (HbS) was determined using Surface Plasmon Resonance (SPR). Patient Sickle Cell blood was obtained from Boston Children's Hospital in accordance with Institutional Review Board protocols. HbS was obtained from the blood of homozygous S/S patients, and purified using the method described in: Antonini and Brunori, Hemoglobin and Myoglobin in their Reactions with Ligands. Amsterdam, London, North-Holland Publishing Company, 1971. Whole blood was separated into red blood cell and plasma components by centrifugation, after which the plasma was decanted and discarded. Packed red blood cells were washed with normal saline (0.9% NaCl) and then lysed by 2:1 dilution with cold deionized water. The hemolysate was centrifuged to remove cellular debris, and further purified with the addition of Drabkin's Buffer (2.8 M potassium phosphate), and centrifugation with Celite®. Organic phosphates (2,3-BPG) were removed via gel filtration with Sephadex® G-25. HbS and wild-type hemoglobin, hemoglobin A (HbA), were separated by […], using diethylaminoethyl (DEAE)-Sepharose® fast flow, and eluted using a pH gradient from pH 8.5-pH 7.5. Purity of the resulting HbS and HbA was determined by native gel electrophoresis and HbS fractions used further.
To stabilize the tetrameric structure of hemoglobin, HbS was crosslinked between the beta subunits (Lys82-Lys82) using bis(3,5-dibromosalicyl) fumarate, as described in: Shibayama N. et al, J Am Chem Soc 2014, 136, 13, 5097-5105 and Shibayama N. et al, Biochemistry 1991, 39, 33, 8158-8165). Crosslinked HbS was subsequently biotynylated and captured on a custom made Streptavidin sensor to achieve protein density of 4000 to 5000 resonance units (RUs) on the surface. Compound binding to HbS using SPR was tested on Sierra Sensors MASS-1 instrument. The running buffer contained 100 mM Potassium Phosphate, pH 7.5, 0.005% Tween-20, 1 mM ethylenediaminetetraacetic acid (EDTA), 0.1 mg/mL bovine serum albumin with 1% DMSO. Compound samples were injected at a flow rate of 30 μL/min for 2 minutes association and at least 5 minutes of dissociation time. A 2- or 3-fold dilution series containing at least 4 concentrations were tested for each compound. The dose range was selected based on the activity of the compounds in biochemical assays, when available. Multiple blank injections of running buffer were run before and after each compound series to allow blank subtraction for compound data in the analysis software. Positive controls were run in each experiment to monitor and maintain the activity of HbS on the surface. A DMSO curve was run at the beginning of each data set to apply an excluded volume correction to the data during analysis. The data were processed and analyzed using Sierra Sensors and Scrubber 2.0 software. The binding affinities (dissociation constant Kd) were calculated by fitting the sensorgrams to a 1:1 binding model.

IC50 (HbS) [nM]	Kd [1] [nM]	Compound
6300	195	Cc1cc2nc(N)c(O[C@@H](C)c3nc4c(cnn4CCO)cc3-n3cccn3)cc2cn1 [Example 77, 2-[6-{(1S)-1-[(2-amino-7-methyl-1,6-naphthyridin-3-yl)oxy]ethyl}-5-(1H-pyrazol-1-yl)-1H-pyrazolo[3,4-b]pyridin-1-yl]ethanol]
4010	43	C[C@H](Oc1cc2cc(F)cc(F)c2nc1N)c1cc(C(=O)O)c(F)cc1-n1cccn1 [Example 23, 5-{(1S)-1-[(2-amino-6,8-difluoroquinolin-3-yl)oxy]ethyl}-2-fluoro-4-(1H-pyrazol-1-yl)benzoic Acid]
4500	47	C[C@H](Oc1cc2cc(F)ccc2nc1N)c1cc2[nH]ncc2cc1-n1cccn1 (single isomer, unassigned) [Example 59]
4250	16	C[C@H](Oc1cc2cc(F)cc(F)c2nc1N)c1[nH]c(=O)ccc1-n1cccn1 [Example 53, 6-{(1S)-1-[(2-amino-6,8-difluoroquinolin-3-yl)oxy]ethyl}-5-(1H-pyrazol-1-yl)pyridin-2-ol]
4500	64	C[C@H](Oc1cc2c(F)ccc(F)c2nc1N)c1cc(C(=O)O)ccc1-n1cccn1 [Example 19, 3-{(1S)-1-[(2-amino-5,8-difluoroquinolin-3-yl)oxy]ethyl}-4-(1H-pyrazol-1-yl)benzoic Acid]
4510	20	C[C@H](Oc1cc2cc(F)ccc2nc1N)c1cc2c(cnn2CCO)cc1-n1cccn1 [Example 73, 2-[6-{(1S)-1-[(2-amino-6-fluoroquinolin-3-yl)oxy]ethyl}-5-(1H-pyrazol-1-yl)-1H-indazol-1-yl]ethanol]
4600	13	C[C@H](Oc1cc2cc(F)ccc2nc1N)c1cc2c(cnn2CC(N)=O)cc1-n1cccn1 [Example 70, 2-[6-{(1S)-1-[(2-amino-6-fluoroquinolin-3-yl)oxy]ethyl}-5-(1H-pyrazol-1-yl)-1H-indazol-1-yl]acetamide]
4710	253	C[C@H](Oc1cc2ncc(F)cc2nc1N)c1nc(O)ccc1-n1cccn1 [Example 48, 6-{(1S)-1-[(2-amino-7-fluoro-1,5-naphthyridin-3-yl)oxy]ethyl}-5-(1H-pyrazol-1-yl)pyridin-2-ol]
4480	35	COC(=O)c1ccc(-n2cccn2)c([C@H](C)Oc2cc3cc(F)ccc3nc2N)c1 [Example 6, methyl 3-{(1S)-1-[(2-amino-6-fluoroquinolin-3-yl)oxy]ethyl}-4-(1H-pyrazol-1-yl)benzoate]
5710	406	C[C@H](Oc1cc2cc(C(N)=O)ccc2nc1N)c1nc(CO)ccc1-n1cccn1 [Example 55, 2-amino-3-{(1S)-1-[6-(hydroxymethyl)-3-(1H-pyrazol-1-yl)pyridin-2-yl]ethoxy}quinoline-6-carboxamide]
4750	57	C[C@H](Oc1cc2cc(F)c(Cl)cc2nc1N)c1nc(C(N)=O)ccc1-n1cccn1 [Example 32, 6-{(1S)-1-[(2-amino-7-chloro-6-fluoroquinolin-3-yl)oxy]ethyl}-5-(1H-pyrazol-1-yl)pyridine-2-carboxamide]
4780	67	C[C@H](Oc1cc2cc(Br)ccc2nc1N)c1ncc(F)cc1-n1cccn1 [Example 25, 6-bromo-3-{(1S)-1-[5-fluoro-3-(1H-pyrazol-1-yl)pyridin-2-yl]ethoxy}quinolin-2-amine]
5580	185	C[C@H](Oc1cc2ccccc2nc1N)c1ncc(F)cc1-n1cccn1 [Example 45, 3-{(1S)-1-[5-fluoro-3-(1H-pyrazol-1-yl)pyridin-2-yl]ethoxy}quinolin-2-amine]
3620	45	C[C@H](Oc1cc2cc(F)cc(F)c2nc1N)c1ncc(F)cc1-n1cccn1 [Example 38, 6,8-difluoro-3-{(1S)-1-[5-fluoro-3-(1H-pyrazol-1-yl)pyridin-2-yl]ethoxy}quinolin-2-amine]
6770	579	C[C@H](Oc1cc2cc(F)ccc2nc1N)c1nc(C(=O)O)ccc1-n1cccn1 [Example 37, 6-{(1S)-1-[(2-amino-6-fluoroquinolin-3-yl)oxy]ethyl}-5-(1H-pyrazol-1-yl)pyridine-2-carboxylic Acid]
4610	15	C[C@H](Oc1cc2cc(F)ccc2nc1N)c1nc2[nH]ncc2cc1-n1cccn1 [Example 68, 6-fluoro-3-{(1S)-1-[5-(1H-pyrazol-1-yl)-1H-pyrazolo[3,4-b]pyridin-6-yl]ethoxy}quinolin-2-amine]
7180	271	C[C@H](Oc1cc2cc(F)ccc2nc1N)c1cc(CC(=O)O)ccc1-n1cccn1 (single isomer, unassigned) [Example 8]
4960	69	C[C@H](Oc1cc2cc(F)c(Cl)cc2nc1N)c1ncc(F)cc1-n1cccn1 [Example 31, 7-chloro-6-fluoro-3-{(1S)-1-[5-fluoro-3-(1H-pyrazol-1-yl)pyridin-2-yl]ethoxy}quinolin-2-amine]
4380	14	C[C@H](Oc1cc2cc(F)ccc2nc1N)c1cc(-c2n[nH]c(=O)o2)ccc1-n1cccn1 [Example 5, 5-[3-{(1S)-1-[(2-amino-6-fluoroquinolin-3-yl)oxy]ethyl}-4-(1H-pyrazol-1-yl)phenyl]-1,3,4-oxadiazol-2(3H)-one]
5220	102	Cc1cc2nc(N)c(O[C@@H](C)c3nc(O)ccc3-n3cccn3)cc2cn1 [Example 46, 6-{(1S)-1-[(2-amino-7-methyl-1,6-naphthyridin-3-yl)oxy]ethyl}-5-(1H-pyrazol-1-yl)pyridin-2-ol]
3830	44	C[C@H](Oc1cc2cc(F)ccc2nc1N)c1nc(OCCO)ccc1-n1cccn1 [Example 41, 2-{[6-{(1S)-1-[(2-amino-6-fluoroquinolin-3-yl)oxy]ethyl}-5-(1H-pyrazol-1-yl)pyridin-2-yl]oxy}ethanol]
5730	220	Cc1nc2cc(-n3cccn3)c([C@H](C)Oc3cc4cc(F)ccc4nc3N)cc2[nH]1 [Example 64, 6-fluoro-3-{(1S)-1-[2-methyl-5-(1H-pyrazol-1-yl)-1H-benzimidazol-6-yl]ethoxy}quinolin-2-amine]
4480	38	C[C@H](Oc1cc2cc(F)ccc2nc1N)c1cc(C(=O)NCCO)ccc1-n1cccn1 [Example 12, 3-{(1S)-1-[(2-amino-6-fluoroquinolin-3-yl)oxy]ethyl}-N-(2-hydroxyethyl)-4-(1H-pyrazol-1-yl)benzamide]

Source: patent publication US11014908B2, “Chemical compounds” (Pfizer Inc., priority 2018, dated 2021)
